Source: paper PMC6193938, “Characterization of a novel AICARFT inhibitor which potently elevates ZMP and has anti-tumor activity in murine models” (Scientific Reports, 2018)
Like-named read-outs stand apart in the source and are kept apart here.

System: panel of human cell lines
Test: In vitro proliferation assay, Cell Titer Glo, two doubling times, 298 cell lines
Assay type: cell-based
Conditions: Homo sapiens, read-out: ABS_IC50_VALUE
Text: Cell Titer Glo measures ATP, thus the IC50s represent both the effect on purine production and cell proliferation, which are related. […] Folates are actively taken up in cells by reduced folate carrier (SLC19A1), proton-coupled folate transporter (SLC46A1), and the FOLR1 folate receptor[17]. Once inside the cell, folates are trapped by polyglutamation catalyzed by folylpolyglutamate synthetase (FPGS). […] Gene expression data for ATIC, GART, APRT, HPRT, FOLR1, SLC19A1, SLC46A1 & FPGS are shown in Fig. 2, since these genes were anticipated to predict sensitivity. […] The MDA-MB-231 cell line is reduced folate carrier (SLC19A1) negative due to epigenetic silencing.
Cells were cultured using recommended culture conditions unless noted otherwise (Supplemental Table 3). Cells were plated, dosed with compound and incubated at 37 °C for approximately 2 doubling times as determined for each cell line. Cell Titer Glo (Promega) assay was used to measure proliferation according to manufacturer’s recommendations by measuring luminescence with Flexstation3 (Molecular Devices) with 500 ms integration time. […] The % response was fit to a four-parameter logistic equation using ACTIVITYBASE 4.0 to determine the absolute IC50 values.
Cell Lines: Cell lines of adrenal gland, autonomic ganglia, biliary tract, blood ALL, blood AML, blood CML, blood hodgkin lymphoma, blood lymphoma, blood multiple myeloma, blood NHL, blood RAEB, bone, breast ER+, breast fibroblast, breast fibroblast mixed, breast HER2, breast normal, breast triple negative, cervix, CNS, endometrium, eye, fibroblast normal, kidney ns, kidney renal, large intestine, liver, liver normal, lung adenocarcinoma, lung ns, lung NSCLC, lung NSCLC mixed, lung SCLC, lung squamous, melanoma, melanoma normal, esophagus adenocarcinoma, esophagus ns, esophagus squamous, ovary, pancreas adenocarcinoma, pancreas ductal carcinoma, pancreas ns, pleura mesothelioma, prostate adenocarcinoma, prostate small cell, salivary gland, small intestine, soft tissue, stomach, testis, thyroid, thyroid squamous, umbilical vein endothelial cell normal, upper aerodigestive tract squamous, urinary tract ns, urinary tract transitional cell carcinoma, and vulva squamous origin were obtained from ATCC, CASTCC, CLS, DSMZ, ECACC, HSRRB, ICLC, JCRB, NCI, Riken and SNU cell banks. The murine A9 cell line was acquired from the ATCC (CCL-1.4).

O=c1[nH]ccc2cc(F)c(NS(=O)(=O)c3ccc(N4CC[C@@H](O)C4)s3)cc12 [LSN3213128, N-(6-Fluoro-1-oxo-1,2-dihydroisoquinolin-7-yl)-5-[(3R)-3-hydroxypyrrolidin-1-yl]thiophene-2-sulfonamide]
IC50 (NCI-H661, NCI-H661, lung): 16.2 µM
IC50 (NCI-H716, NCI-H716, large intestine): 1.34 µM
IC50 (NCI-H929, NCI-H929, haematopoietic and lymphoid tissue): > 20 µM
IC50 (NCI-H1048, NCI-H1048, lung): > 20 µM
IC50 (NCI-H1092, NCI-H1092, lung): > 20 µM
IC50 (NCI-H1105, lung): > 20 µM
IC50 (NCI-H1155, NCI-H1155, lung): 13.6 µM
IC50 (NCI-H1299, NCI-H1299, lung): 1.32 µM
IC50 (NCI-H1341, lung): 2.83 µM
IC50 (NCI-H1355, NCI-H1355, lung): > 20 µM
IC50 (NCI-H1395, NCI-H1395, lung): 12.6 µM
IC50 (NCI-H1435, NCI-H1435, lung): > 20 µM
IC50 (NCI-H1437, NCI-H1437, lung): 1.37 µM
IC50 (NCI-H1573, NCI-H1573, lung): > 20 µM
IC50 (NCI-H1581, NCI-H1581, lung): 16.5 µM
IC50 (NCI-H1618, lung): > 20 µM
IC50 (NCI-H1623, NCI-H1623, lung): > 20 µM
IC50 (NCI-H1648, NCI-H1648, lung): > 20 µM
IC50 (NCI-H1650, NCI-H1650, lung): 8.18 µM
IC50 (NCI-H1651, NCI-H1651, lung): > 20 µM
IC50 (NCI-H1666, NCI-H1666, lung): > 20 µM
IC50 (NCI-H1694, NCI-H1694, lung): > 20 µM
IC50 (NCI-H1703, NCI-H1703, lung): > 20 µM
IC50 (NCI-H1734, NCI-H1734, lung): > 20 µM
IC50 (NCI-H1781, NCI-H1781, lung): > 20 µM
IC50 (NCI-H1792, NCI-H1792, lung): 8.57 µM
IC50 (NCI-H1793, NCI-H1793, lung): > 20 µM
IC50 (NCI-H1836, NCI-H1836, lung): 2.47 µM
IC50 (NCI-H1838, NCI-H1838, lung): > 20 µM
IC50 (NCI-H1876, lung): > 20 µM
IC50 (NCI-H1930, NCI-H1930, lung): 17.8 µM
IC50 (NCI-H1944, NCI-H1944, lung): > 20 µM
IC50 (NCI-H1975, NCI-H1975, lung): 2.15 µM
IC50 (NCI-H2009, NCI-H2009, lung): > 20 µM
IC50 (NCI-H2023, NCI-H2023, lung): > 20 µM
IC50 (NCI-H2029, NCI-H2029, lung): > 20 µM
IC50 (NCI-H2030, NCI-H2030, lung): 8.19 µM
IC50 (NCI-H2052, NCI-H2052, pleura): > 20 µM
IC50 (NCI-H2066, NCI-H2066, lung): > 20 µM
IC50 (NCI-H2081, NCI-H2081, lung): > 20 µM
IC50 (NCI-H2085, lung): > 20 µM
IC50 (NCI-H2087, NCI-H2087, lung): > 20 µM
IC50 (NCI-H2122, NCI-H2122, lung): 1.22 µM
IC50 (NCI-H2126, NCI-H2126, lung): > 20 µM
IC50 (NCI-H2170, NCI-H2170, lung): 13.7 µM
IC50 (NCI-H2171, NCI-H2171, lung): > 20 µM
IC50 (NCI-H2227, lung): > 20 µM
IC50 (NCI-H2228, NCI-H2228, lung): 7.07 µM
IC50 (NCI-H2286, NCI-H2286, lung): 17.6 µM
IC50 (NCI-H2347, NCI-H2347, lung): > 20 µM
IC50 (NCI-H2405, NCI-H2405, lung): > 20 µM
IC50 (NCI-H2452, NCI-H2452, pleura): > 20 µM
IC50 (NCI-N87, NCI-N87, stomach): 2.39 µM
IC50 (NCI-SNU-5, stomach): > 20 µM
IC50 (NCI-SNU-16, stomach): 1.18 µM
IC50 (NH-6, autonomic ganglia): > 20 µM
IC50 (NMC-G1, central nervous system): > 20 µM
IC50 (NOMO-1, NOMO-1, haematopoietic and lymphoid tissue): 2.03 µM
IC50 (NUGC-3, NUGC-3, stomach): 11.9 µM
IC50 (NUGC-4, NUGC-4, stomach): 8.38 µM
IC50 (OCUM1, OCUM-1, stomach): 16.5 µM
IC50 (OE19, OE19, oesophagus): 6.52 µM
IC50 (OE33, OE33, oesophagus): 12.7 µM
IC50 (ONS-76, ONS-76, central nervous system): 3.6 µM
IC50 (OVCAR-3, OVCAR-3, ovary): 12.7 µM
IC50 (OVMANA, ovary): 2.59 µM
IC50 (P31-FUJ, haematopoietic and lymphoid tissue): 0.71 µM
IC50 (PC-3, prostate): > 20 µM
IC50 (PF-382, PF-382, haematopoietic and lymphoid tissue): 2.13 µM
IC50 (Panc 04.03, Panc 04.03, pancreas): 5.44 µM
IC50 (Pfeiffer, haematopoietic and lymphoid tissue): 2.55 µM
IC50 (QGP-1, QGP-1, pancreas): 10.7 µM
IC50 (RD, soft tissue): 9.13 µM
IC50 (RD-ES, bone): 8.54 µM
IC50 (REH, haematopoietic and lymphoid tissue): 6.9 µM
IC50 (RERF-LC-MS, lung): 1.92 µM
IC50 (RKN, ovary): > 20 µM
IC50 (RKO, large intestine): 8.04 µM
IC50 (RL95-2, RL95-2, endometrium): > 20 µM
IC50 (RL, haematopoietic and lymphoid tissue): 0.76 µM
IC50 (RMG-I, ovary): > 20 µM
IC50 (RPMI-7951, RPMI-7951, skin): > 20 µM
IC50 (RPMI-8226, RPMI-8226, haematopoietic and lymphoid tissue): 12.6 µM
IC50 (RT4, urinary tract): > 20 µM
IC50 (RT112/84, RT112/84, urinary tract): 1.92 µM
IC50 (Raji, haematopoietic and lymphoid tissue): 7.5 µM
IC50 (Rec1, REC-1, haematopoietic and lymphoid tissue): > 20 µM
IC50 (SCC-4, SCC-4, upper aerodigestive tract): > 20 µM
IC50 (SCC-9, SCC-9, upper aerodigestive tract): > 20 µM
IC50 (SCC-15, SCC-15, upper aerodigestive tract): > 20 µM
IC50 (SCC-25, SCC-25, upper aerodigestive tract): > 20 µM
IC50 (SH-10-TC, stomach): > 20 µM
IC50 (SJRH30, SJRH30, soft tissue): 5.13 µM
IC50 (SJSA-1, SJSA-1, bone): > 20 µM
IC50 (SK-BR-3, SK-BR-3, breast): 6.52 µM
IC50 (SK-CO-1, SK-CO-1, large intestine): 12.8 µM
IC50 (SK-ES1, SK-ES-1, bone): > 20 µM
IC50 (SK-HEP1, SK-HEP-1, liver): 11.1 µM
IC50 (SK-LMS-1, SK-LMS-1, soft tissue): 0.91 µM
IC50 (SK-LU-1, SK-LU-1 (lung, adenocarcinoma)): > 20 µM
IC50 (SK-MEL3, SK-MEL-3 (skin, malignant melanoma)): > 20 µM
IC50 (SK-MEL-2, SK-MEL-2 (skin, malignant melanoma)): > 20 µM
IC50 (SK-MEL-5, SK-MEL-5 (skin, melanoma)): > 20 µM
IC50 (SK-MEL-24, SK-MEL-24 (skin, malignant melanoma)): > 20 µM
IC50 (SK-MEL-28, SK-MEL-28 (skin, malignant melanoma)): 0.47 µM
IC50 (SK-MEL-31 (skin, malignant melanoma)): > 20 µM
IC50 (SK-MES-1, SK-MES-1 (lung; squamous cell carcinoma)): 2.25 µM
IC50 (SK-N-AS, SK-N-AS (brain, neuroblastoma)): > 20 µM
IC50 (SK-OV-3, SK-OV-3 (ovary, adenocarcinoma)): > 20 µM
IC50 (SNB-19, SNB19 (central nervous system, Glioblastoma)): 0.79 µM
IC50 (SNG-M (endometrium, endometrial adenocarcinoma)): > 20 µM
IC50 (SNU-182, SNU-182 (liver, hepatocellular carcinoma)): 20.7 µM
IC50 (SNU-216, SNU-216 (stomach, Human gastric carcinoma)): > 20 µM
IC50 (SNU-387, SNU-387 (liver, pleomorphic hepatocellular carcinoma)): 27 µM
IC50 (SNU-398, SNU-398 (liver, hepatocellular carcinoma)): 16.4 µM
IC50 (SNU-423, SNU-423 (liver, pleomorphic hepatocellular carcinoma)): 21.7 µM
IC50 (SNU-449, SNU-449 (liver, hepatocellular carcinoma)): 11.3 µM
IC50 (SNU-475, SNU-475 (liver, hepatocellular carcinoma)): 24.8 µM
IC50 (SNU-C1, SNU-C1 (large intestine, colon, adenocarcinoma)): 4.55 µM
IC50 (SNU-C2A (large intestine, cecum, colorectal carcinoma)): > 20 µM
IC50 (SW48, SW48 (large intestine, colon, colorectal adenocarcinoma)): 6.86 µM
IC50 (SW480, SW480 (large intestine, colon, colorectal adenocarcinoma)): 1.97 µM
IC50 (SW837, SW837 (large intestine, rectum, adenocarcinoma)): 1.28 µM
IC50 (SW1271, SW 1271 (lung; small cell lung carcinoma)): 10.4 µM
IC50 (SW1353, SW 1353 (bone, chondrosarcoma)): > 20 µM
IC50 (SW1417, SW1417 (large intestine, colon, colorectal adenocarcinoma)): > 20 µM
IC50 (SW1463, SW1463 (large intestine, rectum, colorectal adenocarcinoma)): 15.1 µM
IC50 (SW-620, SW620 (large intestine, colon, adenocarcinoma)): > 20 µM
IC50 (T84 (large intestine, colon, colorectal carcinoma)): > 20 µM
IC50 (T98G, T98G (central nervous system, glioblastoma multiforme)): 3.62 µM
IC50 (TCC-SUP, TCCSUP (urinary bladder, transitional cell carcinoma)): 4.2 µM
IC50 (TE-1 (oesophagus, esophageal squamous cell carcinoma)): 1.08 µM
IC50 (TE-5 (oesophagus, esophageal squamous cell carcinoma)): 4.79 µM
IC50 (TE-9 (oesophagus, esophageal squamous cell carcinoma)): 1.17 µM
IC50 (TE-11, TE-11 (oesophagus, esophageal squamous cell carcinoma)): 2.02 µM
IC50 (TE-15, TE-15 (oesophagus, esophageal squamous cell carcinoma)): 0.73 µM
IC50 (THP-1, THP-1 (haematopoietic and lymphoid tissue, leukemia, acute monocytic)): 5.52 µM
IC50 (TOV21G, TOV-21G (ovary, clear cell carcinoma)): > 20 µM
IC50 (TT (thyroid, carcinoma)): 10.6 µM
IC50 (Toledo, Toledo (haematopoietic and lymphoid tissue, diffuse large cell lymphoma)): > 20 µM
IC50 (U-251, U251 (central nervous system, human glioma)): 3.02 µM
IC50 (U-266, U-266 (haematopoietic and lymphoid tissue, myeloma; plasmacytoma)): 13.4 µM
IC50 (UACC-812, UACC-812 (breast, ductal carcinoma)): > 20 µM
IC50 (UMUC3, UM-UC-3 (urinary bladder, transitional cell carcinoma)): 1.93 µM
IC50 (VCaP, VCaP (prostate, prostate cancer)): 7.74 µM
IC50 (VMRC-RCZ (kidney, renal cancer)): 7.61 µM
IC50 (WM 266-4, WM-266-4 (skin, melanoma)): > 20 µM
IC50 (WM-115, WM-115 (skin, malignant melanoma)): > 20 µM
IC50 (ZR-75-30, ZR-75-30 (breast, ductal carcinoma)): > 20 µM
